Laboratory results: publication PMC2763540 (Chemistry & biology, 2009)
Where “and” joins values, the source holds several entries; their conditions need not be identical. Equal entries are not always repeated. Entries after “also recorded” stand apart in the source; their conditions may differ. Where two headings read alike, the source gives them in different places.

How the values were obtained:
[1] = system: voltage-gated sodium channels; assay type: cell-based, mouse (Swiss-Webster)
[2] = system: hoiamide A-induced elevation of neuronal [Na+]i in neocortical neurons; assay type: cell-based, mouse (Swiss-Webster)
[3] = system: neurotoxin site 2 on VGSCs; conditions: cited from earlier work
[4] = system: neurotoxin site 2 on VGSCs; assay type: binding, mouse (Swiss-Webster)
[5] = system: neurotoxin site 2 on VGSCs; assay type: cell-based, mouse (Swiss-Webster)
[6] = system: mouse neocortical neurons
[7] = system: cancer cells
[8] = system: voltage-gated sodium channels; conditions: cited from earlier work
[9] = system: neurotoxin site 5 on VGSCs; conditions: cited from earlier work

Compound: CC1(C)[C@H](C(=O)O[C@H](C#N)c2cccc(Oc3ccccc3)c2)[C@@H]1C=C(Br)Br [deltamethrin]
- sodium influx when given alone [1]: inactive alone
- effect on maximum response of hoiamide A-induced sodium influx [2]: significantly increased the maximum response; also recorded: enhance hoiamide A-induced elevation of neuronal [Na^+]i
- effect on [3H]BTX specific binding (allosteric) [3]: dramatically increased

Compound: brevetoxin 3 [PbTx-3]
- sodium influx when given alone [1]: inactive alone
- effect on maximum response of hoiamide A-induced sodium influx [2]: significant increase in the maximum response; also recorded: enhance hoiamide A-induced elevation of neuronal [Na^+]i

Compound: NC1=N[C@H](O)[C@H]2[C@H]3O[C@]4(O)O[C@@H]([C@@H](O)[C@@]2(N1)[C@@H]4O)[C@]3(O)CO [TTX, tetrodotoxin]
- effect on hoiamide A-induced elevation of neuronal [Na+]i [2]: eliminated the hoiamide A-induced elevation of neuronal [Na^+]i; also recorded: inhibition of hoiamide A-induced elevation of neuronal [Na^+]i

Compound: NS(=O)(=O)c1cccc2c1c([N+](=O)[O-])cc1nc(O)c(O)nc12 [NBQX]
- effect on hoiamide A-induced Na+ influx [2]: no effect

Compound: CCC[C@@H](C)[C@H](O)[C@H](C)[C@H]1OC(=O)[C@H]([C@@H](C)O)NC(=O)[C@H](C(C)C)OC(=O)[C@H](C)[C@H](O)[C@H]([C@@H](C)CC)NC(=O)[C@@]2(C)CSC(=N2)[C@@]2(C)CSC(=N2)c2csc(n2)C[C@H](OC)[C@@H]1C [hoiamide A]
- elevation of neuronal [Na+]i / sodium influx [1]: rapid and concentration-dependent elevation of neuronal [Na^+]i; also recorded: VGSC activator; also recorded: maximum sodium influx that was less than that of the full agonist, batrachotoxin
- maximum response, elevation of neuronal [Na+]i [1]: less than 20 mM
- relative efficacy for elevation of neuronal [Na+]i [1]: 0.38
- type of agonism at neurotoxin site 2 on VGSCs [1]: partial agonist at neurotoxin site 2; also recorded: partial agonism at the neurotoxin site 2 on VGSCs
- EC50 ([1]; read-out: EC50 for hoiamide-induced sodium influx): 2.31 µM
- inhibition of [3H]BTX specific binding [4]: concentration-dependent inhibition of [^3H]BTX specific binding; also recorded: inhibit the specific binding of [^3H]BTX to VGSCs
- IC50 ([4]; read-out: IC50, inhibition of [3H]batrachotoxin binding): 0.0928 µM
- change of hoiamide A EC50 value by modulator [2]: without altering the hoiamide A EC50 value; also recorded: no corresponding effect on the hoiamide A EC50 value
- maximum response of hoiamide A-induced sodium influx, AUC [2]: 89.9 fluorescence x min and 141.4 fluorescence x min and 143.4 fluorescence x min
- effect on batrachotoxin-induced sodium influx (SBFI AUC) [5]: concentration-dependent reduction in batrachotoxin-induced sodium influx; also recorded: reversal of batrachotoxin (30 nM)-induced elevation of neuronal [Na^+]i
- IC50 [6]: 0.0475 µM
- cytotoxicity to cancer cells [7]: modest cytotoxicity

Compound: C=C(C=O)C[C@@H]1C[C@H](O)[C@]2(C)O[C@@H]3C[C@@H]4O[C@@H]5C[C@]6(C)O[C@]7(C)CC[C@@H]8O[C@@H]9C[C@]%10(C)O[C@@H]%11C(C)=CC(=O)O[C@H]%11C[C@H]%10O[C@H]9C[C@@H](C)[C@H]8O[C@H]7C[C@H]6O[C@H]5C/C=C\[C@H]4O[C@H]3C[C@H]2O1 [brevetoxin]
- effect on [3H]BTX specific binding (allosteric) [3]: dramatically increased

Compound: batrachotoxin
- elevation of neuronal [Na+]i / sodium influx [1]: rapid and concentration-dependent elevation of neuronal [Na^+]i
- maximum response, elevation of neuronal [Na+]i [1]: greater than 60 mM
- EC50 ([1]; read-out: EC50 for batrachotoxin-induced elevation of neuronal [Na+]i): 0.0114 µM
- type of agonism at neurotoxin site 2 [8]: full agonist at neurotoxin site 2

Compound: C=CC/C=C\C=C/[C@H]1O[C@H]2C[C@H]3O[C@H]4CC[C@H]5O[C@H]6C[C@@]7(C)O[C@@]8(C)[C@@H](O)C[C@H](CCCO)O[C@@H]8C[C@@H]7O[C@@H]6C[C@@H]5O[C@]4(C)C[C@]3(C)O[C@@H]2C=C[C@]1(C)O [gambierol]
- effect on PbTx-1 induced elevation of neuronal [Na+]i [9]: inhibited the full agonist PbTx-1 induced elevation of neuronal [Na^+]i
- type of agonism at neurotoxin site 5 [9]: low efficacy partial agonist at neurotoxin site 5

Compound: COc1ccc(C(=O)O[C@H]2CC[C@@]3(C)[C@@H]4CC[C@H]5[C@]6(O)C[C@H](O)[C@@]7(O)[C@@H](CN8C[C@@H](C)CC[C@H]8[C@@]7(C)O)[C@]6(O)C[C@@]53O[C@]24O)cc1OC [veratridine]
- inhibition of [3H]BTX specific binding [4]: much less potent than hoiamide A; also recorded: inhibit the specific binding of [^3H]BTX to VGSCs
- IC50 ([4]; read-out: IC50, inhibition of [3H]BTX specific binding): 33 µM

Compound: C[C@]12N[C@H](Cc3ccccc31)c1ccccc12 [MK-801]
- effect on hoiamide A-induced elevation of neuronal [Na+]i [2]: partial, but statistically significant, decrease
